Holding throughout (assay type): protein-complex assay
Experiment [1] addresses T1, Ecdysone receptor (Plodia interpunctella, UniProt Q6IVK1+Q6RVD3).
T1 sequence (Q6RVD3 whole entry): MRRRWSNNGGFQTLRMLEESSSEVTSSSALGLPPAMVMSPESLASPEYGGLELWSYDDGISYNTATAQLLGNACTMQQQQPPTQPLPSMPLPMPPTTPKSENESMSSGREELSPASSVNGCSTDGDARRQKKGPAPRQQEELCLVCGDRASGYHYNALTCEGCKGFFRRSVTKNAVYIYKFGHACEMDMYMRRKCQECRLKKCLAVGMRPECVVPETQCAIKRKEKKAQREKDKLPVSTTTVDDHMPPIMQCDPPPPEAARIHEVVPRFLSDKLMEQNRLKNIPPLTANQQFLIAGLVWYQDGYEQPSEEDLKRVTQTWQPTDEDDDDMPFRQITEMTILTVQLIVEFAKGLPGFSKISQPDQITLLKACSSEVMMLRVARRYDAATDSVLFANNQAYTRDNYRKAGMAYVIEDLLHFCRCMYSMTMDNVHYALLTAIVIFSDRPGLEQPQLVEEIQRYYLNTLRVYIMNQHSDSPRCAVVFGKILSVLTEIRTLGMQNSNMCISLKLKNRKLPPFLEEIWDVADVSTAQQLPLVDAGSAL
T1 sequence (Q6IVK1 whole entry): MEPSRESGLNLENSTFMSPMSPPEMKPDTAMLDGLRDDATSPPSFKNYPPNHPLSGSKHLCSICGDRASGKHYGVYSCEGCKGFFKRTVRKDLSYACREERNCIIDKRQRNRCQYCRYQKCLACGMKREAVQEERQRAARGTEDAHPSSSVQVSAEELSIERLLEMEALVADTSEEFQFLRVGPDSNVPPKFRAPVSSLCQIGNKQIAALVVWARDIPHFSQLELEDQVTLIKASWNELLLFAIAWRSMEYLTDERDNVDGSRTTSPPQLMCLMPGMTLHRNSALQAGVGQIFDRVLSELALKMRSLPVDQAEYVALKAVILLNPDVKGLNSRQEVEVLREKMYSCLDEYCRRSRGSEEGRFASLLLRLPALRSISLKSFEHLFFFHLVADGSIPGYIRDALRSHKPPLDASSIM
Kind of experiment: Binding affinity to Plodia interpunctella (Indian meal moth ) EcR.

Experiment [2] concerns the target T2, Ecdysone receptor (Heliothis virescens, UniProt O18473+Q7SIF6).
T2 sequence (O18473 whole entry): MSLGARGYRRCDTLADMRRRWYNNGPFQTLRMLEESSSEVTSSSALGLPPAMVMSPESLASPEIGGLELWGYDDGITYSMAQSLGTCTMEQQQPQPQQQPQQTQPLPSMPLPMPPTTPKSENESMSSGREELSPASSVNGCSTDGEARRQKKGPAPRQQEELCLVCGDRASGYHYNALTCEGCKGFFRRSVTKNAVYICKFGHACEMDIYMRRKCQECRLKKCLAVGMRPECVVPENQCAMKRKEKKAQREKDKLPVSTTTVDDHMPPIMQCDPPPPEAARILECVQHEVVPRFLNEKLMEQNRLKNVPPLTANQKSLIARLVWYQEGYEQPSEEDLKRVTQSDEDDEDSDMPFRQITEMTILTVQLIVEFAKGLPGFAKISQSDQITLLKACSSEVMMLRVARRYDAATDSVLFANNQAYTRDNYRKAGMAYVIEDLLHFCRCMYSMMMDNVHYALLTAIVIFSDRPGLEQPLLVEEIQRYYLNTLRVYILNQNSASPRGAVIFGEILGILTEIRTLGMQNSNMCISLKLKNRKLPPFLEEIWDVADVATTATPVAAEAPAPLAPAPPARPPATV
T2 sequence (Q7SIF6 whole entry): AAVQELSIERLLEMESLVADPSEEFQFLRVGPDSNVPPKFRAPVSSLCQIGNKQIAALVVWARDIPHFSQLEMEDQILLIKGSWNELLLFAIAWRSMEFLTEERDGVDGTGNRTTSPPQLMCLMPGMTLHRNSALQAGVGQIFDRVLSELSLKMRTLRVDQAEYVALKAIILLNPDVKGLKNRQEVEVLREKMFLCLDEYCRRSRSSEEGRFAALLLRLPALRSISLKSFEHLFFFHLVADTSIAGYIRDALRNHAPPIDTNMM
In words: Binding affinity to Heliothis virescens (tobacco budworm) EcR.

Experiment [3] deals with T3, Ecdysone receptor (Nezara viridula, UniProt E5L6Y0+E5L6Y1).
T3 sequence (E5L6Y1 whole entry): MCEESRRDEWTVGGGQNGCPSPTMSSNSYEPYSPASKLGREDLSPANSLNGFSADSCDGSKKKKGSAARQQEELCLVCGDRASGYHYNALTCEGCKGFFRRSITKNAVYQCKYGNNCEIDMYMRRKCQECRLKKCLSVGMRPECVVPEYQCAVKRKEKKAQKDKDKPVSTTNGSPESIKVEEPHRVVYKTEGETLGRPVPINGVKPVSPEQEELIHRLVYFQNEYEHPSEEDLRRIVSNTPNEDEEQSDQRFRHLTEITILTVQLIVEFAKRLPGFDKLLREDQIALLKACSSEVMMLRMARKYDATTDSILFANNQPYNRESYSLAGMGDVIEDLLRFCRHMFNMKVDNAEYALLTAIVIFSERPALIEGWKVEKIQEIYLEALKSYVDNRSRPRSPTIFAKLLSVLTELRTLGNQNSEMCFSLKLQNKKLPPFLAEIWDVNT
T3 sequence (E5L6Y0 whole entry): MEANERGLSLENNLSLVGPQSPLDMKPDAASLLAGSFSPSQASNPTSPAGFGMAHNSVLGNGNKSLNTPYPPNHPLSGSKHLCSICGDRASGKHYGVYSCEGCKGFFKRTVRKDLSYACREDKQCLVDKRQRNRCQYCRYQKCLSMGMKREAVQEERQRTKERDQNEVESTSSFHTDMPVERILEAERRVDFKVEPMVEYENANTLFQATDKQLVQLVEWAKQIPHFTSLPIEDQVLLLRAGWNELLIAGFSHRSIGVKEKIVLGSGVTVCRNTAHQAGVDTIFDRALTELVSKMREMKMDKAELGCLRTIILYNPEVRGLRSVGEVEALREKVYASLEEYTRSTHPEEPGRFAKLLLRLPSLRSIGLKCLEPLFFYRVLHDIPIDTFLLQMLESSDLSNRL
In words: Binding affinity to Nezara viridula EcR10.

With `CCc1ccc(C(=O)NN(C(=O)c2cc(C)cc(C)c2)C(C)(C)C)cc1` [TEBUFENOZIDE], the Ki (as a rule, the equilibrium dissociation constant of an inhibitor or competing ligand from its target) at Ecdysone receptor [1] is 3.16 nM; on Ecdysone receptor [2], 3.16 nM; on Ecdysone receptor [3] it was 20000 nM.

The values above are taken from ChEMBL document CHEMBL3045439, “Isoforms of the heteropteran Nezara viridula ecdysone receptor: protein characterisation, RH5992 insecticide binding and homology modelling” (Pest Manag Sci, 2011).
